pIC50: −log10 of the molar value. Entries after “also recorded” stand apart in the source; their conditions may differ.
Tests used:
Format in all cases: cell-based
MV4-11 cell line = experiment: CellTiter-Glo Luminescent Cell Viability Assay, cell growth inhibition; details: Homo sapiens, 96 h, 4 days
Procedure, shortened: (§1)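 Cells plated at 2,000/well with serially diluted compounds, incubated 4 days at 37° C, 5% CO2. Viability read by CellTiter-Glo luminescence after 10-20 min at room temperature; IC50 from dose-response fit.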

RS4; 11 cell line = experiment: as above; details: Homo sapiens, 96 h, 4 days
Procedure, shortened: as §1

[1] = test system: p53 target genes: p21, PUMA and BAX; experiment: Activation of p53 downstream target genes, quantitative real-time PCR; details: RS4, 11 cells, 10 nM; for mRNA levels of p21: FIG. 3; for mRNA levels of PUMA: FIG. 4; for mRNA levels of BAX: FIG. 5; for activation of p53 downstream target genes (mRNA levels of p21, PUMA, BAX): 3, 6, or 12 hours
Experimental: RS4; 11 cells were treated with Cpd. A (0.3 μM), Cpd. No. 15 (10 nM), and Cpd. No. 22 (10 nM) for 3, 6, or 12 hours, and then harvested and washed. Cellular mRNA samples were extracted from the cells and then subjected to Reverse Transcription and quantitative real-time PCR for the analysis of the mRNA levels of three representative p53 target genes: p21, that induces cell cycle arrest, and PUMA and BAX that leads to apoptosis. […] A, Cpd. No. 15, and Cpd. No. 22.

RS4; 11 cells = experiment: Cell growth inhibition by WST assay with Cpd. C co-treatment (CRBN competition); set-up: LogIC50: unit not given here; details: for HillSlope / pIC50 / LogIC50: 4 days; for shift of the dose response curves: co-treatment of Cpd. C (10, 20, or 30 μM)
Experimental: RS4; 11 cells were pre-incubated with different concentrations of Cpd. C to compete for the binding of phthalimide to CRBN, or DMSO, for 2 hours before adding Cpd. A, Cpd. No. 14, Cpd. No. 15, and Cpd. No. 22. The cells were then co-treated with 10, 20, or 30 μM Cpd. C and increasing concentrations of Cpd. A, Cpd. No. 14, Cpd. No. 15, and Cpd. No. 22 for 4 days, with a starting cell concentration of ˜15,000/well. Cell growth inhibition was determined by the WST assay. […] No. 14, Cpd. No. 15, and Cpd. No. 22 with co-treatment of Cpd. C. The structure of Cpd.

[2] = test system: RS4; 11 cells with stable shRNA knockdown of p53; experiment: Cell growth inhibition by WST assay, p53 knockdown cells; set-up: LogIC50: unit not given here; details: RS4;11 sh p53, 4 days; for pIC50: Homo sapiens, 96 h
Experimental: (§2) RS4; 11 cells with stable shRNA knockdown of p53 or those transfected shRNA control vector were treated with Cpd. A, Cpd. B, Cpd. No. 14, Cpd. No. 21, Cpd. No. 15, and Cpd. No. 22 for 4 days, with a cell concentration of ˜15,000/well. Cell growth inhibition was determined by WST assay. See Table 7 (p53) and Table 8 (control). Significant increases in IC50 of the Compounds of the Disclosure in the p53 knockdown RS4; 11 cells were observed compared with that in the sh control cells. […] The p53 knockdown efficiency was determined by western blot for p53 protein levels with or without treatment of Cpd. A (1 μM) for 2 hours.

[3] = test system: RS4; 11 cells transfected shRNA control vector; experiment: Cell growth inhibition by WST assay, shRNA control cells; set-up: LogIC50: unit not given here; details: RS4;11 sh Control, 4 days; for pIC50: Homo sapiens, 96 h
Experimental: as §2

MDM2 [4] = target: T1, MDM2 (Homo sapiens, UniProt Q00987); experiment: MDM2 degradation and p53 activation, western blotting of cell lysates; set-up: endogenous in cells; details: for p53 activation: MV-4-11 cell line; for protein level of MDM2 (MDM2 degradation): MV-4-11 cells, 2 hours, compared to Cpd. A
Experimental: MV-4-11 cells were treated with Cpd. A, Cpd. B, Cpd. No. 15, and Cpd. No. 22 for 2 hours, then harvested and lysed. The cell lysates were subjected to western blotting analysis. […] No. 15 and Cpd. No. 22 as compared to Cpd. A, indicating MDM2 degradation.

MDM2 [5] = target: T1, MDM2; experiment: as above; set-up: endogenous in cells; host or cells: RS4;11; details: RS4; for p53 activation: 11 cell line; for protein level of MDM2 (MDM2 degradation): 11 cells, 2 hours, compared to Cpd. A
Experimental: RS4; 11 cells were treated with Cpd. A, Cpd. B, Cpd. No. 15, and Cpd. No. 22 for 2 hours, then harvested and lysed. The cell lysates were subjected to western blotting analysis. […] No. 15 and Cpd. No. 22 as compared to Cpd. A, indicating MDM2 degradation. The structure of Cpd.

MDM2 [6] = target: T1, MDM2; experiment: MDM2 degradation with or without proteasome inhibitor MG-132, western blotting; set-up: endogenous in cells; host or cells: RS4;11; details: FIG. 6
Experimental: RS4; 11 cells were pre-incubated with the proteasome inhibitor MG-132 (20 μM) or without any pre-incubation for 2 hours. Next, the cells were treated with Cpd. A (0.3 μM), Cpd. No. 14 (0.03 μM), Cpd. No. 15 (0.01 μM), and Cpd. No. 22 (0.01 μM) for 2 hours, then harvested and lysed. The cell lysates were subject to western blotting analysis.

MDM2 [7] = target: T1, MDM2; experiment: MDM2 degradation and p53 activation after pre-incubation with Cpd. C, Western blot; set-up: endogenous in cells; host or cells: RS4;11; details: for MDM2 degradation, dependence on cereblon (CRBN): FIG. 7; for MDM2 degradation, competition by Cpd. C / p53 activation, competition by Cpd. C: RS4, 11 cells, pre-incubated with 30 μM Cpd. C for 2 hours
Experimental: RS4; 11 cells were pre-incubated with 30 μM Cpd. C to compete for the binding of phthalimide to CRBN, or DMSO, for 2 hours before adding Cpd. A, Cpd. No. 14, Cpd. No. 15, and Cpd. No. 22. In the Western blot RS4; 11 cells were then co-treated with the indicated compounds at the indicated concentrations after pre-incubation. […] No. 14, Cpd. No. 15, and Cpd.

[8] = Homo sapiens, 96 h, without Cpd. C

T1 sequence (Q00987 whole entry): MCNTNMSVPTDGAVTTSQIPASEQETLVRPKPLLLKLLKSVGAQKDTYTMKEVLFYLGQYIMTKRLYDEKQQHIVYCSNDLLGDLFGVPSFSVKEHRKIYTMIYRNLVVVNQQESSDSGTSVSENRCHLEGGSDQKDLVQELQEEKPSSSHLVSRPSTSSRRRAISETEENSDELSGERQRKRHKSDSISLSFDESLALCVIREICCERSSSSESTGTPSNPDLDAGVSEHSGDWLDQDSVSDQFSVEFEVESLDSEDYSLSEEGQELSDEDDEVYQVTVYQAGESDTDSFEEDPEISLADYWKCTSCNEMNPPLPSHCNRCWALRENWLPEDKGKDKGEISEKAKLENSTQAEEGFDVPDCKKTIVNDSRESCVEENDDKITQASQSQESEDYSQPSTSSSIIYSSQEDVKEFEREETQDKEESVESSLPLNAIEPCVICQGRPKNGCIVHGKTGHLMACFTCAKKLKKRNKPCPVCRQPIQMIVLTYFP

Structure (SMILES)	pIC50 (MV4-11 cell line)	pIC50 (RS4; 11 cell line)	mRNA levels of p21 [1]	mRNA levels of PUMA [1]	mRNA levels of BAX [1]	activation of p53 downstream target genes (mRNA levels of p21, PUMA, BAX) [1]	HillSlope (RS4; 11 cells; + 10 uM Cpd. C)	pIC50 (RS4; 11 cells; + 10 uM Cpd. C)	LogIC50 (RS4; 11 cells; + 10 uM Cpd. C)	HillSlope (RS4; 11 cells; + 20 uM Cpd. C)	pIC50 (RS4; 11 cells; + 20 uM Cpd. C)	LogIC50 (RS4; 11 cells; + 20 uM Cpd. C)	HillSlope (RS4; 11 cells; + 30 uM Cpd. C)	pIC50 (RS4; 11 cells; + 30 uM Cpd. C)	LogIC50 (RS4; 11 cells; + 30 uM Cpd. C)	HillSlope (RS4; 11 cells; without Cpd. C)	LogIC50 (RS4; 11 cells; without Cpd. C)	pIC50 (RS4; 11 cells; [8])	shift of the dose response curves (RS4; 11 cells)	pIC50 [2]	also measured
O=C1CCC(N2C(=O)c3cccc(NCCOCCOCCOCCNC(=O)c4ccc(NC(=O)[C@@H]5NC6(CCCCC6)[C@@]6(C(=O)Nc7cc(Cl)ccc76)[C@H]5c5cccc(Cl)c5F)cc4)c3C2=O)C(=O)N1 (stereo partly drawn) [Cpd. No. 15, (3′R,4'S,5′R)-6″-chloro-4′-(3-chloro-2-fluorophenyl)-N-(4-((2-(2-(2-(2-((2-(2,6-dioxopiperidin-3-yl)-1,3-dioxoisoindolin-4-yl)amino)ethoxy)ethoxy)ethoxy)ethyl)carbamoyl)phenyl)-2″-oxodispiro[cyclohexane-1,2′-pyrrolidine-3′,3″-indoline]-5′-carboxamide]	8.70	8.36	activate	activate	activate	Significant activation	−1.654	7.36	−1.356	−1.540	7.17	−1.167	−1.416	7.21	−1.205	−1.839	−2.312	8.31	Significant rightward shifts	6.96	HiliSlope [2]: −0.8905; LogIC50 [2]: −0.9565; pIC50 [3]: 8.13; HiliSlope [3]: −1.626; LogIC50 [3]: −2.127; p53 activation (MDM2 [4]): p53 activation; protein level of MDM2 (MDM2 degradation) (MDM2 [4]): induce MDM2 degradation; also recorded: significantly decreased; p53 activation (MDM2 [5]): p53 activation; protein level of MDM2 (MDM2 degradation) (MDM2 [5]): induce MDM2 degradation; also recorded: significantly decreased; MDM2 degradation, dependence on proteasome (MDM2 [6]): proteasome-dependent; MDM2 degradation, dependence on cereblon (CRBN) (MDM2 [7]): cereblon (CRBN)-dependent; MDM2 degradation, competition by Cpd. C (MDM2 [7]): significantly competed by Cpd. C; p53 activation, competition by Cpd. C (MDM2 [7]): significantly competed by Cpd. C
O=C1CCC(N2Cc3c(NCCOCCOCCOCCNC(=O)c4ccc(NC(=O)[C@@H]5NC6(CCCCC6)[C@@]6(C(=O)Nc7cc(Cl)ccc76)[C@H]5c5cccc(Cl)c5F)cc4)cccc3C2=O)C(=O)N1 (stereo partly drawn) [Cpd. No. 22, (3′R,4'S,5′R)-6″-chloro-4′-(3-chloro-2-fluorophenyl)-N-(4-((2-(2-(2-(2-((2-(2,6-dioxopiperidin-3-yl)-1-oxoisoindolin-4-yl)amino)ethoxy)ethoxy)ethoxy)ethyl)carbamoyl)phenyl)-2″-oxodispiro[cyclohexane-1,2′-pyrrolidine-3′,3″-indoline]-5′-carboxamide]	8.57	8.33	activate	activate	activate	Significant activation	−1.701	7.21	−1.209	−1.530	7.05	−1.048	−1.341	7.08	−1.080	−1.803	−2.242	8.24	Significant rightward shifts	6.86	HiliSlope [2]: −0.8833; LogIC50 [2]: −0.8628; pIC50 [3]: 8.02; HiliSlope [3]: −1.567; LogIC50 [3]: −2.025; p53 activation (MDM2 [4]): p53 activation; protein level of MDM2 (MDM2 degradation) (MDM2 [4]): induce MDM2 degradation; also recorded: significantly decreased; p53 activation (MDM2 [5]): p53 activation; protein level of MDM2 (MDM2 degradation) (MDM2 [5]): induce MDM2 degradation; also recorded: significantly decreased; MDM2 degradation, dependence on proteasome (MDM2 [6]): proteasome-dependent; MDM2 degradation, dependence on cereblon (CRBN) (MDM2 [7]): cereblon (CRBN)-dependent; MDM2 degradation, competition by Cpd. C (MDM2 [7]): significantly competed by Cpd. C; p53 activation, competition by Cpd. C (MDM2 [7]): significantly competed by Cpd. C

From patent US12637473B2, “MDM2 protein degraders” (THE REGENTS OF THE UNIVERSITY OF MICHIGAN, priority 2016, dated 2026)
